# Laboratory results published in patent publication US20110230472A1, “RING-FUSED AZOLE DERIVATIVE HAVING PI3K-INHIBITING ACTIVITY” (Shionogi & Co., Ltd., priority 2008, published 2011).
# Target: PI-3 kinase γ (Homo sapiens, UniProt P48736)
# Assay: PI3Kγ inhibitory activity, PI3-kinase HTRF assay (inhibition ratio)
# Assay type: biochemical
# Settings: 0.5 h; PI3Kγ, compound at 10 μM
# Procedure: The PI3Kγ inhibitory activity of a compound was evaluated using PI3-kinase HTRF™ assay (Millipore) according to the following procedure:
# To each well of a testing plate, 5 μL of a compound solution containing 10% DMSO (200 μmol/L or 40 μmol/L as the concentration of the compound), 5 μL of a substrate solution (40 μmol/L phosphatidylinositol (4,5)-bisphosphate, 20 mmol/L MgCl2, 10 mmol/L DTT), and 5 μL of a enzyme solution (80 μg/mL PI-3 kinase γ, 10 mmol/L MgCl2, 5 mmol/L DTT) were added, and then allowed to stand for 10 minutes.
# Then, 5 μL of a reaction solution (40 μmol/L ATP, 10 mmol/L MgCl2, 5 mmol/L DTT) was added thereto. After reacting for 30 minutes at room temperature, 5 μL of a solution containing EDTA and biotinylated phosphatidylinositol (3,4,5)-triphosphate were added to quench the reaction.
# 5 μL of a detection reagent containing a europium-labeled anti-GST antibody, the GST-tagged PH domain, and allophycocyanin-labeled streptavidin was added thereto. After 18 hours, HTRF (excitation wavelength: 330 nm, measured wavelengths: 620 nm and 665 nm) was measured.
# HTRF ratio was defined as the value obtained by dividing the amount of fluorescence obtained at the measured wavelength 665 nm by the amount of fluorescence obtained at 620 nm. The HTRF ratio in the absence of a compound was defined as 100% activity and the HTRF ratio in the absence of PI-3 kinase γ was defined as 0% activity to calculate an inhibition ratio which was defined as the PI3Kγ inhibitory activity of a compound at 50 μmol/L or 10 μmol/L.
# Sequence of PI-3 kinase γ (P48736 whole entry): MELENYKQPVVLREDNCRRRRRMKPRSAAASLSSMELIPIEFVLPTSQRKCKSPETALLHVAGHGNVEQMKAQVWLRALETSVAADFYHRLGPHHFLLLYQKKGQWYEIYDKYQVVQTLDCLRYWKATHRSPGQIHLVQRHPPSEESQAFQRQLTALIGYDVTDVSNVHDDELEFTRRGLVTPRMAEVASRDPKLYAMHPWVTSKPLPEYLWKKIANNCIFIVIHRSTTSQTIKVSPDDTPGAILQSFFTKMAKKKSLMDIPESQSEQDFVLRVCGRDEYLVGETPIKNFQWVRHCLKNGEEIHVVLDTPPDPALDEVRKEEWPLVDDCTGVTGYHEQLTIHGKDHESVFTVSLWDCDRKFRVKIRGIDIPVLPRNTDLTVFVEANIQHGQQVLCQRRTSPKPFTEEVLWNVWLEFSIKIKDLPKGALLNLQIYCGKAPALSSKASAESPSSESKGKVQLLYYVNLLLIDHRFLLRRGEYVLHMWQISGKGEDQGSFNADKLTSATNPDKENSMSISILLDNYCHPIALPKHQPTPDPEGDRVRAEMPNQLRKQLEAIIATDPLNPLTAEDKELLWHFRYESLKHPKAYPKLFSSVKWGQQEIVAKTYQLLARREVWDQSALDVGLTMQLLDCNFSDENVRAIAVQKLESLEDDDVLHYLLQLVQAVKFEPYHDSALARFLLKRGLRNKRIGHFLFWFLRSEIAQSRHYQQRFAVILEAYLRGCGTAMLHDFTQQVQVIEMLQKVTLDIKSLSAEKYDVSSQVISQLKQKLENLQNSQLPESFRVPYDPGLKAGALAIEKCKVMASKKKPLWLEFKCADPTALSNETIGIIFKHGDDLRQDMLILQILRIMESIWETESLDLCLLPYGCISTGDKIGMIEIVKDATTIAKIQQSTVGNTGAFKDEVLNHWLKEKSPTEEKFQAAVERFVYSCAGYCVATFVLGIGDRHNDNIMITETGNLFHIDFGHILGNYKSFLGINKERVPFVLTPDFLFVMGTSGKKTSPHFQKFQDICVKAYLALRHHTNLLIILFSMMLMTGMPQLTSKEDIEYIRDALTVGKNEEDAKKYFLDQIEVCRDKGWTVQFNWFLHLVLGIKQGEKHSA
row,Compound,inhibition at 10 µM [%]
1,COc1cc(N2CCc3nc(NC(=O)NCCC(=O)N(C)C(C)(C)C)sc3C2)nc(OC)n1 [Compound I-270],≥ 95
2,COc1cc(N2CCc3nc(NC(=O)NCCC(=O)N4[C@H](C)CCC[C@@H]4C)sc3C2)nc(OC)n1 [Compound I-271],≥ 95
3,COc1cc(N2CCc3nc(NC(=O)NCCC(=O)N(C(C)C)C(C)C)sc3C2)nc(OC)n1 [Compound I-272],≥ 95
4,COc1cc(N2CCc3nc(NC(=O)NCCC(=O)Nc4ccccc4)sc3C2)nc(OC)n1 [Compound I-273],≥ 95
5,COc1cc(N2CCc3nc(NC(=O)NCCC(=O)N(C)c4ccccc4)sc3C2)nc(OC)n1 [Compound I-274],≥ 95
6,COc1cc(N2CCc3nc(NC(=O)NCCC(=O)N4CCC[C@H]4C(=O)OC(C)(C)C)sc3C2)nc(OC)n1 [Compound I-275],≥ 95
7,COc1cc(N2CCc3nc(NC(=O)N[C@@H](CC(=O)OC(C)(C)C)C(=O)O)sc3C2)nc(OC)n1 [Compound I-280],≥ 95
8,COc1cc(N2CCc3nc(NC(=O)CCNC(=O)OC(C)(C)C)sc3C2)nc(OC)n1 [Compound I-281],≥ 95
9,COc1cc(C(=O)Nc2nc3c(s2)CN(c2cc(OC)nc(OC)n2)CC3)on1 [Compound I-282],86
10,CC(=O)Nc1cc2n(n1)CCN2c1ccc2c(c1)CCC2=O [Compound I-283],≥ 95
11,COc1cc(N2CCc3nc(NC(=O)NCC(=O)NCC(C)(C)C)sc3C2)nc(OC)n1 [Compound I-285],≥ 95
12,COc1cc(N2CCc3nc(NC(=O)NCCCOC(C)(C)C)sc3C2)nc(OC)n1 [Compound I-288],≥ 95

# Same assay, conditions: 0.5 h; PI3Kγ, compound at 50 μM
row,Compound,inhibition at 50 µM [%]
1,COc1cccc(N2CCn3nc(N)cc32)c1 [Compound I-286],77

# Same assay, conditions: 0.5 h; compound at 10 μmol/L
row,Compound,inhibition at 10 µM [%]
1,COc1cc(N2CCc3nc(NC(=O)Nc4ccc(C(C)(C)C)cc4)sc3C2)nc(OC)n1 [Compound I-289],90
2,O=C(Nc1cc2n(n1)CCN2c1ccc2cnccc2c1)OCc1ccccc1 [Compound I-291],≥ 95
3,COc1cccc(N2CCn3nc(NC(=O)CCNC(=O)OC(C)(C)C)cc32)c1 [Compound I-293],86
4,COc1cc(N2CCc3nc(NC(=O)NC4CCCCC4)sc3C2)nc(OC)n1 [Compound I-294],84
5,COc1cccc(NC(=O)Nc2nc3c(s2)CN(c2cc(OC)nc(OC)n2)CC3)c1 [Compound I-295],93
6,COc1cc(N2CCc3nc(NC(=O)Nc4cccs4)sc3C2)nc(OC)n1 [Compound I-296],88
7,COc1cc(N2CCc3nc(NC(=O)Nc4ccsc4)sc3C2)nc(OC)n1 [Compound I-297],91
8,COc1cc(N2CCc3nc(NC(=O)Nc4ccccn4)sc3C2)nc(OC)n1 [Compound I-302],85
9,COc1cc(N2CCc3nc(NC(=O)N4CCC(=O)N5CCOCC5C4=O)sc3C2)nc(OC)n1 (stereo not shown) [Compound I-304],89
10,CC(=O)Nc1cc2n(n1)CCN2c1ccc2c(c1)CCCN2C(=O)OC(C)(C)C [Compound I-306],≥ 95
11,CCOC(=O)CCCCC(=O)Nc1cc2n(n1)CCN2c1cccc(OC)c1 [Compound I-307],86
12,COc1cc(N2CCc3nc(NC(=O)NCCC(=O)N4CCC[C@H]4C(=O)NC(C)(C)C)sc3C2)nc(OC)n1 [Compound I-311],≥ 95
13,COc1cc(N2CCc3nc(NC(=O)NCCC(=O)N4CCC[C@H]4C(=O)N4CCCC4)sc3C2)nc(OC)n1 [Compound I-312],≥ 95
14,COc1cc(N2CCc3nc(NC(=O)NCCC(=O)N4CCC[C@H]4C(=O)N(C)C(C)C)sc3C2)nc(OC)n1 [Compound I-313],89
15,CN1CCc2cc(N3CCn4nc(NC(=O)OCc5ccccc5)cc43)ccc2C1=O [Compound I-314],88
16,COc1cccc(N2CCn3nc(NC(=O)CCCCC(=O)O)cc32)c1 [Compound I-315],≥ 95
17,Nc1cc2n(n1)CCN2c1ccc2cnccc2c1 [Compound I-316],75
18,COc1cccc(N2CCn3nc(NC(=O)c4ccc[nH]4)cc32)c1 [Compound I-320],≥ 95
19,COc1cc(N2CCc3nc(NC(=O)Nc4cccc(C(=O)OC(C)(C)C)c4)sc3C2)nc(OC)n1 [Compound I-321],95
20,CN1CCc2cc(N3CCn4nc(NC(=O)c5ccccc5)cc43)ccc2C1=O [Compound I-324],93
21,COc1cc(N2CCc3nc(NC(=O)NCCC(=O)N4CCOCC4(C)C)sc3C2)nc(OC)n1 [Compound I-328],87

row,Compound,inhibition at 10 µM [%]
1,COc1cc(N2CCc3nc(NC(=O)NCc4cc(Br)no4)sc3C2)nc(OC)n1 [Compound I-329],89
2,CNC(=O)Nc1nc2c(s1)CN(c1cc(Cl)nc(OC)n1)CC2 [Compound I-333],88
3,COc1nc(Cl)cc(N2CCc3nc(NC(C)=O)sc3C2)n1 [Compound I-334],88
4,CC(=O)Nc1cc2n(n1)CCN2c1ccc2c(c1)CCC(=O)N2 [Compound I-335],≥ 95
5,CNC(=O)Nc1cc2n(n1)CCN2c1ccc2c(c1)CCN(C)C2=O [Compound I-336],89
6,COc1cc(N2CCc3nc(NC(=O)Cc4ccccc4C(=O)NC(C)(C)C)sc3C2)nc(OC)n1 [Compound I-337],82
7,CN1CCc2cc(N3CCn4nc(NC(=O)Cc5ccc(F)cc5)cc43)ccc2C1=O [Compound I-342],92
8,CN1CCc2cc(N3CCn4nc(NC(=O)c5ccc(S(C)(=O)=O)s5)cc43)ccc2C1=O [Compound I-344],80
9,CN1CCc2cc(N3CCn4nc(NC(=O)c5cc6ccccc6[nH]5)cc43)ccc2C1=O [Compound I-345],80
10,CN1CCc2cc(N3CCn4nc(NC(=O)c5ccc6[nH]cnc6c5)cc43)ccc2C1=O [Compound I-349],≥ 95
11,CN1CCc2cc(N3CCn4nc(NC(=O)c5ccncc5)cc43)ccc2C1=O [Compound I-360],≥ 95
12,Cc1csc(C(=O)Nc2cc3n(n2)CCN3c2ccc3c(c2)CCN(C)C3=O)c1 [Compound I-361],80
13,CNC(=O)Nc1nc2c(s1)CN(c1cc(N(C)C)nc(OC)n1)CC2 [Compound I-362],≥ 95
14,COC(=O)Nc1cc[nH]c1C(=O)Nc1cc2n(n1)CCN2c1cccc(OC)c1 [Compound I-364],≥ 95
15,CN1CCc2cc(N3CCn4nc(NC(=O)Nc5cccs5)cc43)ccc2C1=O [Compound I-367],86
16,CN1CCc2cc(N3CCn4nc(NC(=O)Nc5ccsc5)cc43)ccc2C1=O [Compound I-368],95
17,CN1CCc2cc(N3CCn4nc(NC(=O)NCc5ccccc5)cc43)ccc2C1=O [Compound I-370],84
18,CN1CCc2cc(N3CCn4nc(NC(=O)c5ccc(N6CCCC6)s5)cc43)ccc2C1=O [Compound I-371],≥ 95
19,CN1CCc2cc(N3CCn4nc(NC(=O)c5cnc(NC(=O)OC(C)(C)C)o5)cc43)ccc2C1=O [Compound I-376],≥ 95
20,CN1CCc2cc(N3CCn4nc(NC(=O)c5cnc(Br)s5)cc43)ccc2C1=O [Compound I-377],≥ 95
21,CN1CCc2cc(N3CCn4nc(NC(=O)c5cnc(N)o5)cc43)ccc2C1=O [Compound I-381],≥ 95

# Same assay, conditions: 0.5 h; compound at 50 μmol/L
row,Compound,inhibition at 50 µM [%]
1,COc1cc(N2CCc3nc(NC(=O)NC4CCC(C(C)(C)C)CC4)sc3C2)nc(OC)n1 (stereo not shown) [Compound I-290],88
2,CC(=O)Nc1cc2n(n1)CCN2c1ccc2c(c1)CCN(C(=O)OC(C)(C)C)C2 [Compound I-301],≥ 95
3,CC(=O)Nc1cc2n(n1)CCN2c1ccc2c(c1)CCNC2 [Compound I-305],84
4,CNC(=O)Nc1nc2c(s1)CN(c1cc(OCC3CC3)nc(Cl)n1)CC2 [Compound I-325],81
5,CN1CCc2cc(N3CCn4nc(NC(=O)C5CCN(C(=O)OC(C)(C)C)C5)cc43)ccc2C1=O (stereo not shown) [Compound I-350],≥ 95
6,CN1CCc2cc(N3CCn4nc(NC(=O)CC5CCN(C(=O)OC(C)(C)C)C5)cc43)ccc2C1=O (stereo not shown) [Compound I-351],≥ 95
7,CN1CCc2cc(N3CCn4nc(NC(=O)C(O)c5ccccc5)cc43)ccc2C1=O (stereo not shown) [Compound I-352],81
8,CN1CCc2cc(N3CCn4nc(NC(=O)C5CCNC5)cc43)ccc2C1=O (stereo not shown) [Compound I-355],92
9,CN1CCc2cc(N3CCn4nc(NC(=O)c5ccc(Br)s5)cc43)ccc2C1=O [Compound I-365],81
10,CN1CCc2cc(N3CCn4nc(NC(=O)NC5CCCC5)cc43)ccc2C1=O [Compound I-369],≥ 95
11,CN1CCc2cc(N3CCn4nc(NC(=O)C5CCCO5)cc43)ccc2C1=O (stereo not shown) [Compound I-372],84
12,CN1CCc2cc(N3CCn4nc(NC(=O)c5csc6ccccc56)cc43)ccc2C1=O [Compound I-373],82
